Activity calls are given as the source filed them. The calls are words filed in the database; no cut-off is given here. Non-standard residues stand in square brackets, D forms with d. Residues, ends and D or L forms follow the SMILES beside them. *: point of attachment. Hexenoyl(2E,4S-Me) = CC[C@H](C)/C=C/C(=O)*; Leu(3R-OH) = CC(C)[C@@H](O)[C@H](N)C(=O)O; NH((S)CH(Me)CH2NMe2) = C[C@@H](CN(C)C)N*; Pro(4S-Me) = C[C@@H]1CN[C@H](C(=O)O)C1; NH(1-CH2NMe2-cBu) = CN(C)CC1(N*)CCC1; Gly(octyl) = CCCCCCCC[C@H](N)C(=O)O; Oxazole4CO(2-Me) = Cc1nc(C(=O)*)co1; hCha = N[C@@H](CCC1CCCCC1)C(=O)O; Tle = CC(C)(C)[C@H](N)C(=O)O; Nle = CCCC[C@H](N)C(=O)O; Aib = CC(C)(N)C(=O)O; βAla = NCCC(=O)O; tBu = CC(C)(C)*
Columns and labels:
Leishmania donovani = assay: Antitrypanosomal activity against Leishmania donovani MHOM/ET/67/L82 incubated for 72 hrs by resazurin staining based analysis; assay type: functional, organism-based; conditions: MHOM/ET/67/L82, 72 h
[1] = Inhibition of Bovine heart ATP synthase assessed as inhibition constant by Michaelis-Menten plot analysis; design: species or system Bos taurus; conditions: read-out: Ki
Trypanosoma cruzi = assay: Antitrypanosomal activity against Trypanosoma cruzi Tulahuen C4 incubated for 4 days; assay type: functional, organism-based; conditions: Tulahuen C4, 96 h
Plasmodium falciparum = assay: Antiplasmodial activity against Plasmodium falciparum NF54 incubated for 48 hrs; assay type: functional, organism-based; conditions: NF54, 48 h
[2] = Cytotoxicity against rat L6 cells assessed as cell viability incubated for 72 hrs by CCK-8 assay
[3] = test system: Trypanosoma brucei rhodesiense; assay: Antitrypanosomal activity against Trypanosoma brucei rhodesiense STIB 900 incubated for 72 hrs by resazurin staining based analysis; assay type: functional, organism-based; conditions: STIB 900, 72 h
Fibroblast = assay: Reduction in respiration rate in human Fibroblast cells assessed as decrease in coupling efficiency at > 200 nM incubated up to 60 mins; assay type: functional, cell-based
Bos taurus = species: Bos taurus; assay: Potency index, ratio of Leucinostatin A Ki to test compound Ki for inhibition of Bovine heart ATP synthase
[4] = Cytotoxicity against rat L6 cells assessed as cell viability; assay type: toxicity, cell-based
[5] = test system: Trypanosoma brucei rhodesiense; assay: Antitrypanosomal activity against Trypanosoma brucei rhodesiense STIB 900; assay type: functional, organism-based

| IC50 [5] [µM] | Structure (SMILES) | IC50 (Leishmania donovani) [µM] | Ki [1] [µM] | IC50 (Trypanosoma cruzi) [µM] | IC50 (Plasmodium falciparum) [µM] | IC50 at 72 h [2] [µM] | IC50 [3] [µM] | Activity (Fibroblast) | Ratio Ki (Bos taurus) | IC50 [4] [µM] |
| --- | --- | --- | --- | --- | --- | --- | --- | --- | --- | --- |
| – | CC[C@H](C)/C=C/C(=O)N1CCC[C@H]1C(=O)N[C@@H](CCC1CCCCC1)C(=O)N[C@H](C(=O)NC(C)(C)C(=O)N[C@@H](CC(C)C)C(=O)N[C@@H](CC(C)C)C(=O)NC(C)(C)C(=O)NC(C)(C)C(=O)NCCC(=O)N[C@@H](C)CN(C)C)[C@H](O)C(C)C ({Hexenoyl(2E,4S-Me)}-P[hCha][Leu(3R-OH)][Aib]LL[Aib][Aib][βAla]-{NH((S)CH(Me)CH2NMe2)}) | 0.00053 | 0.029 | 0.18 | 0.00052 | 0.208 | 0.00056 | – | – | – |
| – | CCCCCCCC[C@H](NC(=O)[C@@H]1C[C@H](C)CN1C(=O)/C=C/[C@@H](C)CC)C(=O)N[C@H](C(=O)NC(C)(C)C(=O)N[C@@H](CC(C)C)C(=O)N[C@@H](CC(C)C)C(=O)NC(C)(C)C(=O)NC(C)(C)C(=O)NCCC(=O)N[C@@H](C)CN(C)C)[C@H](O)C(C)C ({Hexenoyl(2E,4S-Me)}-[Pro(4S-Me)][Gly(octyl)][Leu(3R-OH)][Aib]LL[Aib][Aib][βAla]-{NH((S)CH(Me)CH2NMe2)}) | 0.00069 | 0.053 | 0.024 | 0.00034 | 0.077 | 0.00034 | – | – | – |
| – | CC[C@H](C)/C=C/C(=O)N1C[C@@H](C)C[C@H]1C(=O)N[C@@H](CCC1CCCCC1)C(=O)N[C@@H](CC(C)C)C(=O)NC(C)(C)C(=O)N[C@@H](CC(C)C)C(=O)N[C@@H](CC(C)C)C(=O)NC(C)(C)C(=O)NC(C)(C)C(=O)NCCC(=O)N[C@@H](C)CN(C)C ({Hexenoyl(2E,4S-Me)}-[Pro(4S-Me)][hCha]L[Aib]LL[Aib][Aib][βAla]-{NH((S)CH(Me)CH2NMe2)}) | 0.0013 | 0.107 | 0.043 | 0.00069 | 0.157 | 0.00026 | Active | – | – |
| – | CC[C@H](C)/C=C/C(=O)N1C[C@@H](C)C[C@H]1C(=O)N[C@@H](CCC1CCCCC1)C(=O)N[C@H](C(=O)NC(C)(C)C(=O)N[C@@H](CC(C)C)C(=O)N[C@@H](CC(C)C)C(=O)NC(C)(C)C(=O)NC(C)(C)C(=O)NCCC(=O)N[C@@H](C)CN(C)C)[C@H](O)C(C)C ({Hexenoyl(2E,4S-Me)}-[Pro(4S-Me)][hCha][Leu(3R-OH)][Aib]LL[Aib][Aib][βAla]-{NH((S)CH(Me)CH2NMe2)}) | 0.0012 | 0.022 | 0.275 | 0.00047 | 0.232 | 0.00034 | Active | 4 | – |
| 0.0039 | Cc1nc(C(=O)N2CCC[C@H]2C(=O)N[C@@H](COC(C)(C)C)C(=O)N[C@@H](CC(C)C)C(=O)NC(C)(C)C(=O)N[C@@H](CC(C)C)C(=O)N[C@@H](CC(C)C)C(=O)NC(C)(C)C(=O)NC(C)(C)C(=O)NCCC(=O)NC2(CN(C)C)CCC2)co1 ({Oxazole4CO(2-Me)}-PS(tBu)L[Aib]LL[Aib][Aib][βAla]-{NH(1-CH2NMe2-cBu)}) | 0.166 | 18.1 | 6.41 | 0.272 | – | – | – | – | > 8.75 |
| 0.0013 | Cc1nc(C(=O)N2CCC[C@H]2C(=O)N[C@@H](Cc2c[nH]c3ccccc23)C(=O)N[C@@H](CC(C)C)C(=O)NC(C)(C)C(=O)N[C@@H](CC(C)C)C(=O)N[C@@H](CC(C)C)C(=O)NC(C)(C)C(=O)NC(C)(C)C(=O)NCCC(=O)NC2(CN(C)C)CCC2)co1 ({Oxazole4CO(2-Me)}-PWL[Aib]LL[Aib][Aib][βAla]-{NH(1-CH2NMe2-cBu)}) | 0.031 | – | 2.7 | 0.018 | – | – | – | – | – |
| 0.00076 | Cc1nc(C(=O)N2CCC[C@H]2C(=O)N[C@@H](CCC2CCCCC2)C(=O)N[C@@H](CC(C)C)C(=O)NC(C)(C)C(=O)N[C@@H](CC(C)C)C(=O)N[C@@H](CC(C)C)C(=O)NC(C)(C)C(=O)NC(C)(C)C(=O)NCCC(=O)NC2(CN(C)C)CCC2)co1 ({Oxazole4CO(2-Me)}-P[hCha]L[Aib]LL[Aib][Aib][βAla]-{NH(1-CH2NMe2-cBu)}) | 0.011 | – | 0.193 | 0.0048 | – | – | – | – | – |

| Structure (SMILES) | IC50 [5] [µM] | IC50 (Leishmania donovani) [µM] | Ki [1] [µM] | IC50 (Trypanosoma cruzi) [µM] | IC50 (Plasmodium falciparum) [µM] | IC50 at 72 h [2] [µM] | IC50 [3] [µM] | Activity (Fibroblast) | Ratio Ki (Bos taurus) | IC50 [4] [µM] |
| --- | --- | --- | --- | --- | --- | --- | --- | --- | --- | --- |
| CCCC[C@H](NC(=O)[C@@H]1CCCN1C(=O)c1coc(C)n1)C(=O)N[C@@H](CC(C)C)C(=O)NC(C)(C)C(=O)N[C@@H](CC(C)C)C(=O)N[C@@H](CC(C)C)C(=O)NC(C)(C)C(=O)NC(C)(C)C(=O)NCCC(=O)NC1(CN(C)C)CCC1 ({Oxazole4CO(2-Me)}-P[Nle]L[Aib]LL[Aib][Aib][βAla]-{NH(1-CH2NMe2-cBu)}) | 0.0065 | 1.53 | – | 5.91 | 0.118 | – | – | – | – | > 8.75 |
| Cc1nc(C(=O)N2CCC[C@H]2C(=O)N[C@H](C(=O)N[C@@H](CC(C)C)C(=O)NC(C)(C)C(=O)N[C@@H](CC(C)C)C(=O)N[C@@H](CC(C)C)C(=O)NC(C)(C)C(=O)NC(C)(C)C(=O)NCCC(=O)NC2(CN(C)C)CCC2)C(C)(C)C)co1 ({Oxazole4CO(2-Me)}-P[Tle]L[Aib]LL[Aib][Aib][βAla]-{NH(1-CH2NMe2-cBu)}) | 0.0041 | 1.19 | 16.2 | 6.52 | 0.212 | – | – | – | – | > 8.98 |
